Tests used:
Format in all cases: physicochemical
[1] = Evaluation of solubility in methyl ethyl ketone (MEK); details: in methyl ethyl ketone (MEK) at 20° C.; % by weight; tested from 0.1 to 0.3% by 0.05%
Experimental: The test compound was added to MEK at 20° C. in an amount corresponding to a concentration varying from 0.1 to 0.3% by weight by 0.05% by weight to see whether it dissolved or not.

[2] = Evaluation of light resistance (absorption retention halving time); details: film spin coated on polycarbonate plate; light of 55000 lux; exposure time for absorption retention to decrease to 50%
Experimental: (§1) The test compound shown in Table 2 below was dissolved in a 1:1 (by volume) mixed solvent of MEK and 2,2,3,3-tetrafluoropropan-1-ol to prepare a 1 wt % solution. The solution was applied to a 20 mm×20 mm polycarbonate plate by spin coating at 2000 rpm for 60 seconds to prepare a specimen. The UV absorption spectrum of the specimen was determined. The specimen was then irradiated with light of 55000 lux, and the exposure time required for the absorption retention (as defined in Evaluation Example 2) to decrease to 50% was measured.

[3] = UV transmission and reflection spectra of spin-coated specimens (optical recording material); details: for Reflected Light Intensity at 650 nm: expressed relatively to that at λmax; for Reflected Light Intensity at 650 nm / Reflected Light λmax: incidence angle 5°; for Reflected Light λmax: specimen as in Evaluation Example 3; for Transmitted Light λmax: specimen spin coated on polycarbonate plate as in Evaluation Example 3
Experimental: as §1
Specimens were prepared in the same manner as in Evaluation Example 3. The UV transmission spectrum and the UV reflection spectrum (incidence angle: 5°) of the specimens were measured. In Table 4, the reflected light intensity at 650 nm is expressed relatively to that at λmax.

[4] = Decomposition temperature in TG-DTA; details: 100 ml/min nitrogen stream; temperature rise 10° C./min
Experimental: Decomposition Temperature in TG-DTA (100 ml/min nitrogen stream; temperature rise: 10° C./min): 281° C.

[5] = Absorption spectrum of optical filters containing the cyanine compound (λmax, half bandwidth); details: Example 3: PET-protected glass plate with dye-containing acrylic binder layer
Experimental: A binder composition having the above formulation was applied to a 188 μm thick PET film having been surface treated for adhesion improvement with a bar coater #9 and dried at 80° C. for 30 seconds. The PET film was hot bonded to a 0.9 mm thick alkali glass plate to prepare a PET-protected glass plate having a light absorbing dye-containing binder layer between the glass substrate and the PET film.

Compound	Solubility: insoluble at [1]	Absorption Retention Halving Time [2] [h]	Reflected Light Intensity at 650 nm [3] [%]	Reflected Light λmax [3] [nm]	Transmitted Light λmax [3] [nm]	Decomposition Temperature in TG-DTA [4] [°C]	Solubility: soluble at [1]	Half Bandwidth [5] [nm]	λmax [5] [nm]
CC1=[N+](C)c2ccccc2/C1=C1/C(=O)C(c2c(C)n(C)c3ccccc23)=C1[O-] [Comp. Compound 1, reference compound]	insoluble at 0.1%								
CCCCn1c(C)c(C2=C([O-])/C(=C3/C(C)=[N+](CCCC)c4ccccc43)C2=O)c2ccccc21 [Comp. Compound 2, reference compound]	insoluble at 0.1%								
CC(C)CCn1cc(C2=C([O-])/C(=C/C3=[N+](C)c4ccccc4C3(C)C)C2=O)c2ccccc21 [Compound No. 3]		26	100	651	608				
Cn1cc(C2=C([O-])/C(=C/C3=[N+](C)c4ccc5ccccc5c4C34CCCCC4)C2=O)c2ccccc21 [Compound No. 4]	< 0.2%					259	≥ 0.15%		
CC(C)CC[N+]1=C(/C=C2\C(=O)C(c3cn(C)c4ccccc34)=C2[O-])C(C)(C)c2ccccc21 [Compound No. 5]		38	95.9	656	611	271	soluble at 0.3%	29	587
Cc1c(C2=C([O-])/C(=C/C3=[N+](C)c4ccccc4C3(C)C)C2=O)c2ccccc2n1C [Compound No. 14]						287	soluble at 0.3%	30	602
Cc1[nH]c2ccc(F)cc2c1C1=C([O-])/C(=C/C2=[N+](C)c3ccccc3C2(C)C)C1=O [Compound No. 22]						295		33	590
Cc1c(C2=C([O-])/C(=C/C3=[N+](C)c4ccccc4C3(C)C)C2=O)c2cc([N+](=O)[O-])ccc2n1CCC(C)C [Compound No. 23]								36	597
Cn1c(-c2ccccc2)c(C2=C([O-])/C(=C/C3=[N+](C)c4ccccc4C3(C)C)C2=O)c2ccccc21 [Compound No. 26]						273	soluble at 0.3%	34	606
